In brackets after ≈: the same amount, converted by molar mass. Where two headings read alike, the source gives them in different places.
Key:
[1] = test system: E. coli; experiment: Antibacterial activity, E. coli MIC; format: cell-based; settings: Escherichia coli; Table 8
[2] = Alkylperoxy radical scavenging assay (AIPH, AE-Trolox oxidation); settings: for IC50: 5 mM AIPH, 37° C., 8 minutes, read-out: IC50, inhibition of AE-Trolox oxidation (alkylperoxy radical scavenging); for Percent Trolox Activity / Trolox Equivalents: relative to Trolox
Procedure: In a separate assay, alkylperoxy radicals were generated in vitro using the radical generator AIPH (2,2′-azobis-[2-(2-imidazolyn-2-yl)-propane) and the ability of tetracyclines to scavenge these radicals was determined. […] Also, the ability of Compound 1 and minocycline to specifically scavenge peroxynitrite-carbonate radicals was determined.
In this study, alkylperoxy radicals were generated in vitro using the radical generator AIPH (2,2′-azobis-[2-(2-imidazolyn-2-yl)-propane) and the ability of tetracyclines, such as Compound 1, to scavenge these radicals was determined.
Trolox is a known scavenger of peroxyradicals. Structurally similar to a-tocopherol, Trolox reacts with peroxyradicals via a known mechanism with linear kinetics under excess oxygen conditions. In the presence of a competing antioxidant compound, the rate of Trolox oxidation will change based on the relative rate of oxidation and concentration of the competing antioxidant compound (Huang, et al., J. Agric. Food Chem. 2005, 25, 1841-1856). By measuring the effect of antioxidant concentration on the rate of degradation of Trolox, the relative antioxidant capacity of a compound can be determined. This principle is the basis of the widely used antioxidant capacity assay, ORAC (Huang, et al., J. Agric. Food Chem. 2002, 50, 1815-1821). Unlike ORAC which uses a fluorescent dye indicator, the assay described here directly measures the oxidation of the Trolox derivative, 2-aminoethyl-Trolox (AE-Trolox). This method eliminates interference of the fluorescent dye reaction by tetracycline compounds.
To the first column of a 96-well PCR plate (0.2 mL volume) was added 160 μL of TCWS. One well of the first column would equal one IC50 determination. […] To the remaining wells in columns 2-11 was added 80 μL of AET-WS. Using a multichannel pipettor, column 1 was serially diluted in 2-fold dilutions by removing 80 μL from column 1 and transferring with mixing to column 2. Column 2 was then diluted to column 3 and so on until column 11 where 80 μL of the diluted mixture was removed and discarded. Four wells of row 12 were designated as the 0 test compound/0 AIPH control to which 80 μL of AET-WS was added. One well of row 12 per test compound was designated as the 0 test compound control to which 80 μL of the AET-WS was added.
(§1) The plate was covered and incubated for 5 minutes at 37° C. upon which the reaction was initiated by addition of 20 μL of AIPH to columns 1-11 using a multichannel pipettor with mixing. The reaction was initiated similarly to the 0 test compound wells of column 12. To the 0 test compound/0 AIPH control wells was added 20 μL of PB buffer. The plate was incubated at 37° C. for 8 minutes (the reaction is linear for 10 minutes) and quenched by addition of 50 μL of AA to all wells with mixing. The plate was placed on ice for 5 minutes. Quenched assay mixtures were stable at room temperature for at least 24 hours.
Each reaction mixture was analyzed for AE-Trolox by 2D-LCMS on a Shimadzu 2010 equipped with a loading column (Shim-pack MAYI-ODS, 4.6×10 mm) and a gradient column Phenomenex Luna C18(2) column, 3 um, 4.6×50 mm. Using an automated 2-position swithching valve, samples were loaded onto the loading column by Pump C and washed for 1 minute with loading buffer. At 1 minute, the valve was switched to elution position (Position B, reversed flow through loading column) and the samples were eluted through the gradient column. The loading buffer (Buffer C) was 10% acetonitrile in water with 0.2% formic acid and the gradient buffers were water+0.2% formic acid (A buffer) and acetonitrile+0.2% formic acid (B buffer). Typical injection volumes were 30 μL.
From the TIC integration of AE-Trolox and AE-Trolox-d4, a ratio was calculated:
Ratio=AUCAE-Trolox/AUCAE-Trolox-d4
Percent inhibition of AE-Trolox oxidation (measured as disappearance of AE-Trolox) was then determined by:
% Inhibition=[1−((Ratio0−Ratiox)/(Ratioo−Ratiof))]*100

[3] = test system: MS; settings: cited from earlier work; for % lesion reduction: gadolinium-enhancing MRI lesions
[4] = test system: animal models of MS and neuroprotection; experiment: Accepted animal models of MS and neuroprotection (Table 2); parameters: concentration or dose not given beside the values; settings: in vivo
[5] = Peroxynitrite-carbonate radical scavenging assay (DHR probe); settings: for IC50: Sin-1, 37° C., 8 minutes, read-out: IC50, inhibition of oxidation of DHR probe (peroxynitrite-carbonate scavenging); for Uric Acid Equivalents: relative to uric acid
Procedure: Inflammatory conditions are characterized by increasing concentrations of reactive oxygen species. In this study, the ability of Compound 1 to specifically scavenge peroxynitrite-carbonate radicals was determined.
To the first column of a 96-well PCR plate (0.2 mL volume) was added 160 μL of TCWS. One well of the first column would equal one IC50 determination. Typically, test compounds were assayed in duplicate, i.e. two wells of column 1 were filled with each TCWS. To the remaining wells in columns 2-11 was added 80 μL of DWS. Using a multichannel pipettor, column 1 was serially diluted in 2-fold dilutions by removing 80 μL from column 1 and transferring with mixing to column 2. Column 2 was then diluted to column 3 and so on until column 11 where 80 μL of the diluted mixture was removed and discarded. At least 2 wells of row 12 were designated as the 0 test compound control to which 80 μL of DWS was added. One well of row 12 per test compound was designated as the background control to which 80 μL of the TCWS was added.
as §1, with “Sin-1” for “AIPH”, “background” for “0 test compound/0 AIPH”, “PC” for “PB”
Each reaction mixture (20 μL) was analyzed for rhodamine 123 product by HPLC using a Phenomenex Luna C18(2) column, 3 um, 4.6×50 mm using an A buffer of water+0.1% TFA and a B buffer of acetonitrile+0.1% TFA and the following gradient method: […]
The absorbance at 280 nm was also recorded to ensure no co-elution of test compound peaks.
Initial examination of the background control samples at the highest test compound concentration were performed to ensure no co-elution of test compound peaks with the product rhodamine 123 at 4 minutes. If co-elution was observed, the compound was not tested until an appropriate HPLC method was developed to separate the product and test compound peaks. The rhodamine 123 AUC was then determined for each test compound concentration and the percent inhibition of rhodamine 123 fluorescence was then determined by the following equation:
% Inhibition=[(AUCo−AUCx)/AUCo]*100
Where AUCo is the AUC of the rhodamine 123 peak at 0 test compound concentration and AUCX is the AUC of the rhodamine 123 peak at each test compound concentration=x.
The standard error of the curve fit for the IC50 was also determined along with the Hill slope. The IC50 determined for uric acid was divided by the IC50 determined for each test compound to generate Uric Acid Equivalents, a measure of the peroxynitrite-carbonate radical scavenging ability relative to uric acid.
Uric Acid Equivalents=[…]

C[C@H]1c2cccc(O)c2C(=O)C2=C(O)[C@]3(O)C(=O)C(C(N)=O)=C(O)[C@@H](N(C)C)[C@@H]3[C@@H](O)[C@@H]21 [Doxycycline, doxycycline]
MIC [1]: 0.5 µg/mL (≈ 1.13 µM)

Cc1c(C)c2c(c(C)c1O)CCC(C)(C(=O)O)O2 (centres unmarked) [Trolox]
IC50 [2]: 9 µM | Percent Trolox Activity [2]: 100% | Trolox Equivalents [2]: 1.00

Natalizumab [TYSABRI ®]
% Relapses eduction ([3]; MS clinical studies): 68% | potential side effects ([3]; MS clinical studies): Liver damage, fatigue, fatal | % lesion reduction ([3]; MS clinical studies): 83%

Glatiramer [COPAXONE ®]
% Inhibition Clinical Score [4]: 75% | % Inhibition Demyelination [4]: 74% | % Relapses eduction ([3]; MS clinical studies): 30% | % lesion reduction ([3]; MS clinical studies): 65% | potential side effects ([3]; human, in vivo): Infection, shaking hands,

CCCCCCCCc1ccc(CCC(N)(CO)CO)cc1 [Fingolimod, 2-amino-2-[2-(4-octylphenyl)ethyl]propane-1,3-diol]
% Inhibition Axon Loss [4]: 60% | % Inhibition Clinical Score [4]: 89% | % Inhibition Demyelination [4]: 69% | % Inhibition Inflammation [4]: 59% | % Relapses eduction ([3]; MS clinical studies): 54% | potential side effects ([3]; MS clinical studies): Infections, cancer, cardiac | % lesion reduction ([3]; MS clinical studies): 30%

CCN(C(=O)c1c(O)c2c(Cl)cccc2n(C)c1=O)c1ccccc1 [Laquinimod]
% Relapses eduction ([3]; MS clinical studies): 21% | potential side effects ([3]; MS clinical studies): Increase in liver enzymes | % lesion reduction ([3]; MS clinical studies): 40%

COC(=O)/C=C/C(=O)OC [BG-12]
% Relapses eduction ([3]; MS clinical studies): 32% | potential side effects ([3]; MS clinical studies): Flushing | % lesion reduction ([3]; MS clinical studies): 69%

CN(C)[C@@H]1C(O)=C(C(N)=O)C(=O)[C@@]2(O)C(O)=C3C(=O)c4c(O)cccc4C[C@H]3C[C@@H]12 [Sancycline, sancycline]
IC50 [2]: 369 µM | Percent Trolox Activity [2]: 2% | Trolox Equivalents [2]: 0.02 | IC50 [5]: 66.4 µM | Uric Acid Equivalents [5]: 0.19

O=c1[nH]c(=O)c2[nH]c(=O)[nH]c2[nH]1 [Uric acid]
IC50 [5]: 12.4 µM | Uric Acid Equivalents [5]: 1

C/C(O)=C(\C#N)C(=O)Nc1ccc(C(F)(F)F)cc1 [Teriflunomid]
% Relapses eduction ([3]; MS clinical studies): 30% | potential side effects ([3]; MS clinical studies): Mild infections, Fatigue, | % lesion reduction ([3]; MS clinical studies): 44%

Reference: US20150174144A1, “TETRACYCLINE COMPOUNDS FOR TREATING NEURODEGENERATIVE DISORDERS” (PARATEK PHARMACEUTICALS, INC., priority 2012, published 2015)
